Results from PubChem BioAssay (NCI).
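Cells were grown in 96-well plates and exposed to each compound for 48 hours at five concentrations; endpoints were interpolated linearly between bracketing concentrations, or set to the highest concentration if not reached. TGI denotes the concentration required for complete inhibition of growth.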

Columns and labels:
Assay in all cases: inhibition of tumour cell growth, NCI panel, 48 h
[1] = system: 786-0 renal
[2] = system: A498 renal
[3] = system: A549 NSCLC
[4] = system: ACHN renal
[5] = system: BT-549 breast
[6] = system: CAKI-1 renal
[7] = system: COLO 205 colon
[8] = system: DU-145 prostate
[9] = system: EKVX NSCLC
[10] = system: HCT-116 colon
[11] = system: HCT-15 colon
[12] = system: HOP-62 NSCLC
[13] = system: HOP-92 NSCLC
[14] = system: HS 578T breast
[15] = system: HT29 colon
[16] = system: IGROV1 ovarian
[17] = system: K-562 leukemia
[18] = system: KM12 colon
[19] = system: LOX IMVI melanoma
[20] = system: M14 melanoma
[21] = system: MALME-3M melanoma
[22] = system: MCF7 breast
[23] = system: MDA-MB-231 breast
[24] = system: MDA-MB-435
[25] = system: MDA-N
[26] = system: MOLT-4 leukemia
[27] = system: NCI-H226 lung
[28] = system: NCI-H23 lung
[29] = system: NCI-H522 lung
[30] = system: NCI/ADR-RES ovarian
[31] = system: OVCAR-3 ovarian
[32] = system: OVCAR-4 ovarian
[33] = system: OVCAR-5 ovarian
[34] = system: OVCAR-8 ovarian
[35] = system: PC-3 prostate
[36] = system: RPMI-8226 leukemia
[37] = system: RXF 393 renal
[38] = system: SF-268 CNS
[39] = system: SF-295 CNS
[40] = system: SK-MEL-2 melanoma
[41] = system: SK-MEL-28 melanoma
[42] = system: SK-MEL-5 melanoma
[43] = system: SK-OV-3 ovarian
[44] = system: SN12C renal
[45] = system: SNB-19 CNS
[46] = system: SNB-75 CNS
[47] = system: SR leukemia
[48] = system: SW-620 colon
[49] = system: T-47D breast
[50] = system: TK-10 renal
[51] = system: U251 CNS
[52] = system: UACC-257 melanoma
[53] = system: UACC-62 melanoma
[54] = system: UO-31 renal
[55] = system: HCC-2998 colon
[56] = system: NCI-H460 lung
[57] = system: SF-539 CNS

What does the source list for `Oc1c(Br)cc(Br)cc1CN(Cc1cc(Br)cc(Br)c1O)C1CCCCC1`?
TGI [1]: > 100 µM; TGI [2]: 71.1 µM; TGI [3]: > 100 µM; TGI [4]: > 100 µM; TGI [5]: 90.9 µM; TGI [6]: > 100 µM; TGI [7]: 29.2 µM; TGI [8]: > 100 µM; TGI [9]: 92.5 µM; TGI [10]: > 100 µM; TGI [11]: > 100 µM; TGI [12]: 97.5 µM; TGI [13]: > 100 µM; TGI [14]: 53 µM; TGI [15]: 64.8 µM; TGI [16]: > 100 µM; TGI [17]: > 100 µM; TGI [18]: > 100 µM; TGI [19]: > 100 µM; TGI [20]: > 100 µM; TGI [21]: 59.8 µM; TGI [22]: 65 µM; TGI [23]: 72.4 µM; TGI [24]: > 100 µM; TGI [25]: > 100 µM; TGI [26]: > 100 µM; TGI [27]: > 100 µM; TGI [28]: 70.4 µM; TGI [29]: 36.5 µM; TGI [30]: > 100 µM; TGI [31]: 53.8 µM; TGI [32]: > 100 µM; TGI [33]: > 100 µM; TGI [34]: > 100 µM; TGI [35]: 50.5 µM; TGI [36]: > 100 µM; TGI [37]: > 100 µM; TGI [38]: 71.9 µM; TGI [39]: 72.7 µM; TGI [40]: 45.4 µM; TGI [41]: > 100 µM; TGI [42]: 34.6 µM; TGI [43]: > 100 µM; TGI [44]: > 100 µM; TGI [45]: > 100 µM; TGI [46]: 71.5 µM; TGI [47]: > 100 µM; TGI [48]: > 100 µM; TGI [49]: > 100 µM; TGI [50]: 61 µM; TGI [51]: 74.9 µM; TGI [52]: 45.1 µM; TGI [53]: > 100 µM; TGI [54]: > 100 µM

Which results are given for `CC1(C)SC2C(C(=O)O)N=C(Cc3ccccc3)N2C1C(=O)O` (stereo unspecified)?
TGI [1]: 42.1 µM; TGI [2]: > 100 µM; TGI [3]: > 100 µM; TGI [4]: > 100 µM; TGI [5]: > 100 µM; TGI [6]: > 100 µM; TGI [7]: > 100 µM; TGI [8]: > 100 µM; TGI [9]: 29.7 µM; TGI [55]: 56.9 µM; TGI [10]: > 100 µM; TGI [11]: > 100 µM; TGI [12]: > 100 µM; TGI [13]: > 100 µM; TGI [14]: 95.7 µM; TGI [15]: 29 µM; TGI [16]: > 100 µM; TGI [17]: > 100 µM; TGI [18]: > 100 µM; TGI [19]: 60.5 µM; TGI [20]: > 100 µM; TGI [21]: > 100 µM; TGI [22]: > 100 µM; TGI [23]: > 100 µM; TGI [24]: > 100 µM; TGI [25]: > 100 µM; TGI [26]: > 100 µM; TGI [27]: 51.3 µM; TGI [28]: > 100 µM; TGI [56]: > 100 µM; TGI [29]: > 100 µM; TGI [30]: > 100 µM; TGI [31]: > 100 µM; TGI [32]: > 100 µM; TGI [33]: > 100 µM; TGI [34]: > 100 µM; TGI [35]: > 100 µM; TGI [36]: > 100 µM; TGI [37]: > 100 µM; TGI [38]: 98.1 µM; TGI [39]: > 100 µM; TGI [57]: 57.3 µM; TGI [40]: > 100 µM; TGI [41]: > 100 µM; TGI [42]: > 100 µM; TGI [43]: > 100 µM; TGI [44]: > 100 µM; TGI [45]: > 100 µM; TGI [46]: 49.2 µM; TGI [47]: > 100 µM; TGI [48]: > 100 µM; TGI [49]: 73.7 µM; TGI [50]: 40.5 µM; TGI [51]: > 100 µM; TGI [52]: 49.2 µM; TGI [53]: > 100 µM; TGI [54]: 39.5 µM
